In PubChem BioAssay (NCI):
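Method: 48-hour compound exposure of cells in 96-well plates, five concentrations, linear interpolation of endpoints. Abbreviation: GI50, concentration required for 50% inhibition of growth. TGI marks complete inhibition of growth.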 Where a SMILES comes first, the peptide text is derived from it. [ ]: non-standard residue; d: D form. The star is where a group is joined. hSer = N[CH](CCO)C(=O)O; Boc = CC(C)(C)OC(=O)*

Experiments:
Assay in all cases: NCI anticancer screen, dose series, 48 h
K-562 leukemia = test system: K-562 leukemia
RPMI-8226 leukemia = test system: RPMI-8226 leukemia
MOLT-4 leukemia = test system: MOLT-4 leukemia
SR leukemia = test system: SR leukemia
NCI/ADR-RES ovarian = test system: NCI/ADR-RES ovarian
SN12C renal = test system: SN12C renal
SF-295 CNS = test system: SF-295 CNS
SK-MEL-2 melanoma = test system: SK-MEL-2 melanoma
SK-MEL-28 melanoma = test system: SK-MEL-28 melanoma
HCT-116 colon = test system: HCT-116 colon

| Structure (SMILES) | TGI (K-562 leukemia) [µM] | TGI (RPMI-8226 leukemia) [µM] | TGI (MOLT-4 leukemia) [µM] | TGI (SR leukemia) [µM] | TGI (NCI/ADR-RES ovarian) [µM] | TGI (SN12C renal) [µM] | TGI (SF-295 CNS) [µM] | TGI (SK-MEL-2 melanoma) [µM] | TGI (SK-MEL-28 melanoma) [µM] | TGI (HCT-116 colon) [µM] | GI50 (K-562 leukemia) [µM] | GI50 (RPMI-8226 leukemia) [µM] | GI50 (MOLT-4 leukemia) [µM] | GI50 (SR leukemia) [µM] | GI50 (NCI/ADR-RES ovarian) [µM] | GI50 (SN12C renal) [µM] | GI50 (SF-295 CNS) [µM] | GI50 (SK-MEL-2 melanoma) [µM] | GI50 (SK-MEL-28 melanoma) [µM] | GI50 (HCT-116 colon) [µM] |
| --- | --- | --- | --- | --- | --- | --- | --- | --- | --- | --- | --- | --- | --- | --- | --- | --- | --- | --- | --- | --- |
| CCOn1cc(C[C@@]2(O)C(=O)OC3[C@@H](O)CO[C@@]32O)c2ccccc21 (stereo not given in full) | > 100 | > 100 | > 100 | > 100 | > 100 | > 100 | > 100 | > 100 | > 100 | > 100 | – | – | – | – | – | – | – | – | – | – |
| COC1/C=C\C=C(/C)C(=O)NC2=CC(=O)C(NCCCl)=C(CC(C)CC(OC)C(O)C(C)/C=C(/C)C1OC(N)=O)C2=O (stereo not given) | 13.5 | 31.4 | 5.13 | 1.67 | 31.1 | 2.8 | 8.39 | 2.15 | 2.52 | 2.88 | – | – | – | – | – | – | – | – | – | – |
| [N-]=N[N+]#I1OC(C(F)(F)F)(C(F)(F)F)c2ccccc21 | > 100 | 51.8 | 59.2 | 68.3 | 45.4 | 30 | 31.2 | 32 | 28.9 | 38.2 | – | – | – | – | – | – | – | – | – | – |
| O=c1c2cc([N+](=O)[O-])ccc2n2n1Cc1ccccc1CC2 | > 100 | > 100 | > 100 | > 100 | > 100 | > 100 | > 100 | > 100 | > 100 | > 100 | – | – | – | – | – | – | – | – | – | – |
| COc1ccc(-n2c(CCCC(=O)O)nc3c2C(=O)c2ccccc2C3=O)cc1 | > 100 | > 100 | > 100 | > 100 | > 100 | > 100 | > 100 | > 100 | > 100 | > 100 | – | – | – | – | – | – | – | – | – | – |
| C1=C2SSC3=CC=C(SSc4ccc(s4)SSC4=CC=C(SSC(=C1)S2)S4)S3 | > 100 | > 100 | > 100 | > 100 | > 100 | > 100 | > 100 | > 100 | > 100 | > 100 | – | – | – | – | – | – | – | – | – | – |
| O=C1N[C@H]2c3c(Cl)sc(Cl)c3C(=O)[C@H]2O1 | > 30.7 | > 80.8 | 5.11 | 5.81 | 37.2 | > 47.6 | 34.6 | > 59.9 | 24.7 | > 35.6 | – | – | – | – | – | – | – | – | – | – |
| CCOC(=O)C(NCc1ccccc1)(NC(=O)c1ccccc1)C(F)(F)F (stereo not given) | > 100 | > 100 | > 100 | > 100 | > 100 | > 100 | > 100 | > 100 | > 100 | > 100 | – | – | – | – | – | – | – | – | – | – |
| COc1ccc(NC(=S)NN=C(C)c2cccc(C(C)=NNC(=S)Nc3ccc(OC)cc3)n2)cc1 | > 100 | > 100 | > 100 | > 100 | > 100 | > 100 | > 100 | > 100 | > 100 | > 100 | – | – | – | – | – | – | – | – | – | – |
| COCCC(NC(=O)C(CC(C)C)NC(=O)OC(C)(C)C)C(N)=O (stereo not drawn) (Boc-Leu-[hSer](Me)-NH2; configuration not given here) | > 100 | > 100 | > 100 | > 100 | > 100 | > 100 | > 100 | > 100 | > 100 | > 100 | – | – | – | – | – | – | – | – | – | – |
| COc1ccc(C2CC(c3cc4c(C)c(C(=O)c5ccccc5)oc4cc3O)=Nc3ccccc3S2)cc1OC (stereo not given) | > 100 | > 100 | > 100 | > 100 | > 100 | > 100 | > 100 | > 100 | > 100 | > 100 | – | – | – | – | – | – | – | – | – | – |
| COc1ccc2nc3ccc(OC)cc3c(S(=O)Cc3ccc([N+](=O)[O-])cc3)c2c1 (stereo not given) | > 100 | 7.7 | > 23.2 | > 33.6 | 62.3 | 9.94 | 41.8 | 34.9 | 15.7 | 3.12 | – | – | – | – | – | – | – | – | – | – |
| O=C(NCc1cn(Cc2cccc(Oc3ccccc3)c2)nn1)c1cccnc1Nc1ccccc1 | > 100 | > 100 | > 100 | > 100 | > 100 | 51.2 | > 100 | 75.1 | > 100 | 23.5 | 3.69 | 3.61 | 3.74 | 2.57 | 2.47 | 4.3 | 3.69 | 6.05 | 4.93 | 3.4 |
| O=C1Nc2ccccc2C(=O)OC(Cc2ccccc2)=Nc2ccccc21 | > 100 | > 100 | > 100 | > 100 | > 100 | > 100 | > 100 | > 100 | > 100 | > 100 | – | – | – | – | – | – | – | – | – | – |
